Source: patent publication US8445030B2 (priority 2009, dated 2013)
Entries after “also recorded” stand apart in the source; their conditions may differ. Like-named read-outs stand apart in the source and are kept apart here.

Experiments:
Microbes = test: Microbial efficacy and duration of effects of components; details: component of the spray of Example 1
microorganisms = test: Antiseptic function of components in CaF2-based formulations (Examples 2-4)
[1] = same as normal skin (pH 5.4-5.5)
[2] = cited from earlier work
[3] = component of Example 2 wound gel
[4] = component of Example 3 hair gel
[5] = component of Example 4 hand disinfection spray

[Ca+2].[F-].[F-] [CaF2 (calcium fluoride), calcium fluoride]
Microbial Efficacy (Microbes): bactericide, virucide,; also recorded: fungicide | persistent antiseptic action (microorganisms; [3]): log 3, persistent | persistent antiseptic action (microorganisms; [4]): log 3, persistent | persistent antiseptic action (microorganisms; [5]): log 3, persistent | pH [1]: 5.4 | LD 50 Oral on Rats ([2]; oral, rats): 4500 mg/kg

O=C(O)C=Cc1ccccc1 [Cinnamic acid]
Duration of Effects (Microbes): short to long | Microbial Efficacy (Microbes): bactericide, virucide,; also recorded: fungicide

[Na+].[O-]Cl [NaOCl (Javel water), NaOCl]
Microbial Efficacy (Microbes): bactericide, virucide,; also recorded: fungicide | fast acting antiseptic action (microorganisms; [5]): log 6, fast acting | LD 50 Oral on Rats ([2]; oral, rats): 2000 mg/kg

O=C(O)[C@]1(O)C[C@@H](O)[C@@H](O)[C@H](O)C1 [Quinic acid]
Microbial Efficacy (Microbes): bactericide, virucide,; also recorded: fungicide | LD 50 Oral on Rats ([2]; rat, in vivo, po): >8000 mg/kg

CC(C)O [Isopropyl alcohol]
fast acting antiseptic action (microorganisms; [4]): log 6, fast acting

OO [H2O2 (hydrogen peroxide), hydrogen peroxide]
Duration of Effects (Microbes): short (short = within 60 sec up to max 5 min) | Microbial Efficacy (Microbes): bactericide, virucide,; also recorded: fungicide | LD 50 Oral on Rats ([2]; rat, in vivo, po): 2000 mg/kg

CCO [Ethanol]
fast acting antiseptic action (microorganisms; [3]): log 6, fast acting | fast acting antiseptic action (microorganisms; [5]): log 6, fast acting

O=C(O)CC(O)(CC(=O)O)C(=O)O [Citric acid]
Microbial Efficacy (Microbes): bactericide, virucide,; also recorded: fungicide
